Patent US20260092054A1, “FUSED RING COMPOUND AND PHARMACEUTICAL CONTAINING SAME” (KAKEN PHARMACEUTICAL CO., LTD., priority 2022, published 2026)

Experiments:
human STAT6/pIL-4Rα = molecular target: T1, human STAT6/pIL-4Rα (Homo sapiens, UniProt P42226); test: Binding inhibitory activity between human STAT6/pIL-4Rα by fluorescence polarization method; conditions: rhSTAT6 (123-658) / FAM-pIL-4Rα peptide
T1 construct: histidine tag
T1 sequence (P42226 123-658): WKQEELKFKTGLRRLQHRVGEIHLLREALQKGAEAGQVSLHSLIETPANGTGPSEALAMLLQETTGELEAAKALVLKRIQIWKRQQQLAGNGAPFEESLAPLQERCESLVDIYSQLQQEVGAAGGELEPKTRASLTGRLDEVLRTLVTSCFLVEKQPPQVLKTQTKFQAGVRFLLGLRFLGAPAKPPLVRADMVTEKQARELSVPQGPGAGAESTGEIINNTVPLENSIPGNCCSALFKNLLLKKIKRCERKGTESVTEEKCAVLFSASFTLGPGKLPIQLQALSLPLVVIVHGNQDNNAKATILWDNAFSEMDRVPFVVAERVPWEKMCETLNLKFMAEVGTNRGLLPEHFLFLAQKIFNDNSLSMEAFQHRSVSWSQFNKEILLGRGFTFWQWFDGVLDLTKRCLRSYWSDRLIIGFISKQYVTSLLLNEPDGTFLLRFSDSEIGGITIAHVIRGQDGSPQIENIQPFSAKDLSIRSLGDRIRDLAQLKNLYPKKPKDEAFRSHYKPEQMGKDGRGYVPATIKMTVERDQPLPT
Outline: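 His-tagged human STAT6 (residues 123–658, E. coli-expressed) was preincubated with compound for 30 min at RT in the dark, in buffer e.g. 50 mM NaCl, 10 mM HEPES pH 7.0, 1 mM DTT, 1 mM EDTA, 0.01% NP-40. FAM-pIL-4Rα peptide was then added for 30 min. Fluorescence polarisation was read at 485/535 nm, with IC50 interpolated linearly between two points flanking 50%.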

human STAT6 = test: Human STAT6 dependent reporter activity (IL-4 stimulated STAT6 reporter assay using STAT6-HEK293 cells); format: cell-based; conditions: IL-4 stimulation, luciferase activity; for inhibition at 0.1 µM / inhibition at 1 µM: Homo sapiens, read-out: Inhibition rate (%)

Row | Compound | IC50 (human STAT6/pIL-4Rα) | inhibition at 0.1 µM (human STAT6; compound 0.1 μmol/L) | inhibition at 1 µM (human STAT6; compound 1 μmol/L) | Inhibition rate (%) (human STAT6; compound 0.1 μmol/L) | Inhibition rate (%) (human STAT6; compound 1 μmol/L)
1 | COCCn1c(-c2ccc(-n3c(C)nn(C)c3=O)cc2)cc2ccnc(C(=O)Nc3cccc(C(N)=O)c3F)c21 [Ex. 26] | 390 nM | 63% | 98% |  | 
2 | CCn1c(-c2ccc(-n3cnn(C)c3=O)cn2)cc2cc(C(F)(F)F)cc(C(=O)Nc3cccc(C(N)=O)c3F)c21 [Ex. 65] | 440 nM | 50% | 98% |  | 
3 | CCn1c(-c2ccc(-n3cnn(C)c3=O)cc2)cc2cc(C(F)(F)F)cc(C(=O)Nc3ccc(F)c(C(N)=O)c3)c21 [Ex. 45] | 250 nM |  |  | 63% | 100%
4 | CCn1c(-c2ccc(-n3c(C)nn(C)c3=O)cc2)cc2cc(C(F)(F)F)cc(C(=O)Nc3cccc(C(N)=O)c3)c21 [Ex. 37] | 250 nM | 96% | 100% |  | 
5 | CCn1c(-c2ccc(-n3c(C)nn(C)c3=O)cc2)cc2ccnc(C(=O)Nc3ccc(F)c(C(=O)Nc4cc[nH]n4)c3)c21 [Ex. 185] | 470 nM | 34% | 96% |  | 
6 | COCCn1c(-c2ccc(-n3c(C)nn(C)c3=O)cc2)cc2cc(C(F)(F)F)cc(C(=O)Nc3ccccn3)c21 [Ex. 69] | 290 nM | 61% | 100% |  | 
7 | COCCn1c(-c2ccc(-n3c(C)nn(C)c3=O)cc2)cc2cc(C(F)(F)F)cc(C(=O)Nc3cccc(C(N)=O)n3)c21 [Ex. 171] | 330 nM | 29% | 95% |  | 
8 | CCn1c(-c2ccc(N3C(=O)C(C)CC3C)cc2)cc2ccnc(C(=O)Nc3cccc(C(N)=O)c3)c21 (stereo not drawn) [Ex. 131] | 510 nM | 56% | 92% |  | 
9 | COCCn1c(-c2ccc(-n3c(C)nn(C)c3=O)cc2)cc2cc(C(F)(F)F)cc(C(=O)Nc3cccc(C(=O)Nc4cc(Cl)n(C)n4)c3)c21 [Ex. 176] | 280 nM | 93% |  |  | 
10 | CCn1c(-c2ccc(-n3c(C)nn(C)c3=O)cc2)cc2ccnc(C(=O)Nc3cccc(C(=O)Nc4cn(C)c(=O)n(C)c4=O)c3)c21 [Ex. 166] | 350 nM | 76% | 99% |  | 
11 | CCn1c(-c2ccc(-n3c(C)nn(C)c3=O)cc2)cc2c(C(F)(F)F)ccc(C(=O)Nc3cccc(C(N)=O)c3F)c21 [Ex. 49] | 310 nM | 97% | 100% |  | 
12 | CCn1c(-c2ccc(-n3c(C)nn(C)c3=O)cc2)cc2ccnc(C(=O)Nc3cccc(C(=O)Nc4cncn(C)c4=O)c3)c21 [Ex. 167] | 240 nM | 90% | 99% |  | 
13 | COCCn1c(-c2ccc(-n3c(C)nn(C)c3=O)cc2)cc2cc(C(F)(F)F)cc(C(=O)Nc3cccc(C(=O)Nc4cc[nH]n4)c3)c21 [Ex. 163] | 270 nM | 60% | 99% |  | 
14 | CCn1c(-c2ccc(-n3cnn(C)c3=O)cc2)nc2cc(C(F)(F)F)cc(C(=O)Nc3cccc(C(N)=O)c3F)c21 [Ex. 1] | 390 nM | 22% | 93% |  | 
15 | COCCn1c(-c2ccc(-n3c(C)nn(C)c3=O)cc2)cc2cc(C(F)(F)F)cc(C(=O)Nc3cccc(OC)n3)c21 [Ex. 78] | 340 nM | 89% | 100% |  | 
16 | CCn1c(-c2ccc(-n3c(C)nn(C)c3=O)cc2F)cc2ccnc(C(=O)Nc3cccc(C(N)=O)c3F)c21 [Ex. 98] | 310 nM | 60% | 100% |  | 
17 | CCn1c(-c2ccc(-n3c(C(F)F)nn(C)c3=O)cc2)cc2cc(C(F)(F)F)cc(C(=O)Nc3ccc(F)c(C(N)=O)c3)c21 [Ex. 154] | 280 nM | 52% | 99% |  | 

Row | Compound | IC50 (human STAT6/pIL-4Rα) | inhibition at 0.1 µM (human STAT6; compound 0.1 μmol/L) | inhibition at 1 µM (human STAT6; compound 1 μmol/L) | Inhibition rate (%) (human STAT6; compound 0.1 μmol/L) | Inhibition rate (%) (human STAT6; compound 1 μmol/L)
18 | Cc1nn(C)c(=O)n1-c1ccc(-c2cc3ccnc(C(=O)Nc4ccc(F)c(C(N)=O)c4)c3n2CCOCC(F)(F)F)cc1 [Ex. 114] | 330 nM | 57% | 97% |  | 
19 | CCn1c(-c2ccc(-n3cnn(C)c3=O)cc2)cc2cc(C(F)(F)F)cc(C(=O)Nc3ccc(F)c(C(N)=O)c3)c21 [Ex. 38] | 330 nM |  | 100% | 99% | 
20 | CCc1nn(C)c(=O)n1-c1ccc(-c2cc3cc(C(F)(F)F)cc(C(=O)Nc4ccc(F)c(C(N)=O)c4)c3n2CC)cc1 [Ex. 155] | 380 nM | 69% | 100% |  | 
21 | CCn1c(-c2ccc(N3CCCC3=O)cc2)cc2cc(C(F)(F)F)cc(C(=O)Nc3ccc(F)c(C(N)=O)c3)c21 [Ex. 146] | 750 nM | 55% | 87% |  | 
22 | CCn1c(-c2ccc(N3C(=O)C(C)CC3C)cc2)cc2ccnc(C(=O)Nc3ccc(F)c(C(N)=O)c3)c21 (stereo not drawn) [Ex. 130] | 360 nM |  |  | 74% | 96%
23 | CCn1ccc(NC(=O)c2cccc(NC(=O)c3cc(C(F)(F)F)cc4cc(-c5ccc(-n6c(C)nn(C)c6=O)cc5)n(CCOC)c34)c2)n1 [Ex. 177] | 300 nM | 99% |  |  | 
24 | CCn1c(-c2ccc(N3CCCC3=O)cc2)nc2cc(Br)cc(C(=O)Nc3cccc(C(N)=O)c3)c21 [Ex. 4] | 740 nM | 12% | 64% |  | 
25 | Cc1nn(C)c(=O)n1-c1ccc(-c2cc3ccnc(C(=O)Nc4ccc(F)c(C(N)=O)c4)c3n2CCC(F)F)cc1 [Ex. 111] | 550 nM | 25% | 80% |  | 
26 | CCn1c(-c2ccc(N3CCOCC3=O)cc2)cc2ccnc(C(=O)Nc3ccc(F)c(C(=O)NCC#N)c3)c21 [Ex. 150] | 240 nM | 38% | 89% |  | 
27 | CCn1c(-c2ccc(-n3c(C)nn(C)c3=O)cc2)cc2cc(C)cc(C(=O)Nc3ccc(F)c(C(N)=O)c3)c21 [Ex. 32] | 420 nM | 91% | 100% |  | 
28 | CCn1c(-c2ccc(N3C(=O)C(C)CC3C)cc2)cc2cc(C(F)(F)F)cc(C(=O)Nc3ccc(F)c(C(N)=O)c3)c21 (stereo not drawn) [Ex. 160] | 410 nM | 93% | 100% |  | 
29 | Cc1nn(C)c(=O)n1-c1ccc(-c2cc3ccnc(C(=O)Nc4ccc(F)c(C(N)=O)c4)c3n2CC2CC2)cc1 [Ex. 24] | 320 nM | 54% | 98% |  | 
30 | CCn1c(-c2ccc(-n3c(C)nn(C)c3=O)cc2)cc2ccnc(C(=O)Nc3cccc(C(=O)Nc4cc(C)cn(C)c4=O)c3)c21 [Ex. 165] | 200 nM | 86% | 100% |  | 
31 | Cn1ncn(-c2ccc(-c3cc4cc(C(F)(F)F)cc(C(=O)Nc5ccc(F)c(C(N)=O)c5)c4[nH]3)cc2)c1=O [Ex. 46] | 450 nM | 81% | 100% |  | 
32 | COCCn1c(-c2ccc(-n3c(C)nn(C)c3=O)cc2)c(Cl)c2cc(C(F)(F)F)cc(C(=O)Nc3ccc(F)c(C(N)=O)c3)c21 [Ex. 143] | 390 nM | 87% | 99% |  | 
33 | CCn1c(-c2ccc(-n3cnn(C)c3=O)cc2)cc2cc(C(F)(F)F)cc(C(=O)Nc3cccc(C(N)=O)c3)c21 [Ex. 35] | 350 nM | 100% |  |  | 
34 | CCn1c(-c2ccc(-n3c(C)nn(C)c3=O)cc2)cc2ccnc(C(=O)Nc3cccc(C(=O)NCC#N)c3F)c21 [Ex. 190] | 410 nM | 66% | 97% |  | 
